The record followed here is US20250235500A1, “NEW POLYPEPTIDE FOR PROMOTING TISSUE REPAIR, AND USE THEREOF” (Jinan University, priority 2021, published 2025).

The test system of series [1] is skin of subjects. The series can be described thus: Skin safety evaluation, closed patch test. The class given is in vivo, human. The following applies: TRF7 2 mg/mL, 24 h patch, 20 subjects, observed at 0.5, 6, 12, 24 and 48 h. The method, then: Subject population: A total of 20 subjects, comprising 10 females and 10 males aged 18-55, were selected. All subjects had healthy skin without any history of skin diseases or allergies, meeting the eligibility criteria for participation.
Test method: Qualified patch testers were selected, and a closed patch test method was adopted. Approximately 0.020-0.025 mL of the polypeptide TRF7 (2 mg/mL) was applied to the patch testers, which were then affixed to the subjects' backs using specialized adhesive tape. […] The results of the skin reactions were recorded according to the grading standards stipulated in the Hygienic Standard for Cosmetics.

Series [2] relates to stress-induced gastric ulcer in rats. The series can be described thus: Protective effect on stress-induced gastric ulcer in rats (restraint water-immersion). Format: in vivo, SD rats. As to conditions: sucralfate 1 g/kg intragastric, 7 days; Guth standard; model group 75.1 ± 13.8. The method, then: Test Method: 20 male SD rats weighing 180-210 g (purchased from Guangdong Medical Experimental Animal Center) were randomly divided into five groups: a blank group, a model group, a sucralfate group (1 g/kg, a positive drug group), a low-dose TRF7 group (12.5 mg/kg), and a high-dose TRF7 group (50.0 mg/kg). The treatment groups were subjected to intragastric administration for 7 consecutive days. 24 h before modeling, the rats were subjected to […] but fed with water. […] The rats were cut open along greater curvatures of the stomach, rinsed with the normal saline, and then unfolded, damage to gastric mucosa was observed, and a gastric ulcer index was calculated. Calculating the ulcer index (UI) according to a Guth standard: punctate hemorrhage was scored as 1 point, linear hemorrhage with a length of <1 mm was scored as 2 points, linear hemorrhage with a length of 1-2 mm was scored as 3 points, linear hemorrhage with a length of 2-4 mm was scored as 4 points, linear hemorrhage with a length of >4 mm was scored as 5 points, and linear hemorrhage with a width of >1 mm was scored double points.

Bridge positions count the residues as written; N and C are the ends. Peptide text beside a SMILES is read from it.

As for `CC(C)C[C@H](NC(=O)[C@@H]1CCCN1C(=O)[C@H](C)NC(=O)[C@H](Cc1ccc(O)cc1)NC(=O)[C@H](CO)NC(=O)CNC(=O)[C@@H]1CSSC[C@H](NC(=O)[C@H](C)N)C(=O)N2CCC[C@H]2C(=O)N[C@@H](CC(N)=O)C(=O)N[C@@H](Cc2ccc(O)cc2)C(=O)N2CCC[C@H]2C(=O)N[C@@H](Cc2ccc(O)cc2)C(=O)N1)C(=O)NCC(=O)N[C@@H](Cc1ccc(O)cc1)C(=O)N[C@@H](Cc1c[nH]cn1)C(=O)N[C@H](C(=O)N[C@@H](CCCNC(=N)N)C(=O)N[C@@H](CCC(=O)O)C(=O)N[C@@H](Cc1ccc(O)cc1)C(=O)N1CCC[C@H]1C(=O)N[C@@H](C)C(=O)NCC(=O)N[C@H](C(=O)N[C@@H](CO)C(=O)N[C@@H](C)C(=O)N[C@@H](C)C(=O)O)C(C)C)C(C)C` [TRF7] (H-ACPNYPYCGSYAPLGYHVREYPAGVSAA-OH; disulfide 2-8), the “skin reactions in closed patch test” value in series [1] is listed as “no adverse skin reactions observed”.

For sucralfate, the Ulcer inde in series [2] was found to be 35.5 ± 8.7.
